Ends that are not written are not given here.

Holding throughout (assay type): cell-based
Experiment [1] deals with NFκB p50. Nature of the experiment: Western Blot of NFκB p50 in LNCaP cells. The following applies: 1 μM, 72 hours. How it is done:
(B): is a Western Blot analysis of expression of the NFκB p50. n=2
(§1) Prostate cancer cells LNCaP and breast cancer cells MCF-7 were obtained from American Type Culture Collection (Manassas, Va.) and were cultured as described previously. The antibodies that detect P53, PCNA, GPX1, SOD1, NQ01, Thioredoxin 1, COX2 and COX IV were purchased from Cell Signalling (Danvers, Mass.). The antibodies that detect β actin, NFκB50, pNFκB50, caspase 3 and its cleaved form were purchased from Santa Cruz Biotechnology (Santa Cruz, Calif.). The antibodies against GHRH-R (batch number: SV95) and SV1 (batch number: JH 2317/5) were raised in our laboratory. The signals for the immunoreactive proteins were visualized in a Chemi Doc XRS system (Biorad, Hercules, Calif.). The western Blot assay as well the quantification analysis of the blots was performed as described previously.
LNCaP cells cultured in vitro were exposed to 1 μM GHRH antagonist JMR-132 and 1 μM GHRH(1-29)NH2. The expression levels of NFκB p50, the phosphorylated NFκB p50, caspase 3 (M.W: 35 KDa) and the cleaved caspase 3 were detected by Western Blot. […]
A general note: Immunoblotting shows a protein as a band on a membrane.

Experiment [2] concerns GPX1. Put plainly: Western Blot of GPX1 in LNCaP cells. The following applies: 1 μM, 72 hour exposure, control R.I: 0.107. The procedure:
FIG. 7: is a Western Blot analysis of expression of the antioxidant enzymes TRX1, NQ01, GPX1 and SOD1 in LNCaP prostate cancer cell line after 72 hour exposure to GHRH antagonist JMR-132 and GHRH(1-29)NH2 n=2.
as §1
LNCaP prostate cancer cell line cultured in vitro was exposed to 1 μM JMR-132 and GHRH(1-29)NH2. The expression levels of the detoxifying enzymes were measured by Western Blot. The GPX1 (M.W: 22 Kda) protein expression was higher in the cells exposed to GHRH (1-29)NH2 (R.I: 0.126) and lower in the cells incubated with GHRH antagonist JMR-132 (R.I: 0.035), as compared to control (R.I:0.107). […]

Experiment [3] has as its system N-nitrotyrosine. Nature of the experiment: Protein oxidation: nitrotyrosine immunoblot in LNCaP cells. The conditions noted are these: 1 μM, 72 hour, control R.I: 2.903. How it is done: (§2) The detection of the carbonyl groups, the nitrotyrosine and the lipid peroxidation was performed with the Oxiselect Protein carbonyl Immunoblot, the Oxiselect Nitrotyrosine Immunoblot Kit and the Oxiselect Malondialdehyde Immunoblot Kit respectively (Cell Biolabs, San Diego, Calif.) according the manufacturer s instructions. The detection of the lipid peroxidation using a primary rabbit anti-MDA antibody (Cell Biolabs, San Diego, Calif.) according the manufacturer' instructions. The β-actin signal was used as control.
(§3) LNCaP prostate cancer cell line cultured in vitro were exposed to 1 μM JMR-132 or 1 μM GHRH(1-29)NH2. The levels of the oxidation of the proteins were determined by the detection of the N-nitrotyrosine and the protein carbonyl groups. Both were elevated in the cells exposed to GHRH (1-29)NH2 (R.I: 3.282, 7.415) and decreased in the cells incubated with GHRH antagonist JMR-132 (R.I: 1.251, 4.275), as compared to control (R.I: 2.903, 5.846). The levels of the lipid peroxidation, determined by the detection of the malondialdehyde (MDA), were increased in cells exposed to GHRH (1-29)NH2 (R.I:4.89) and decreased in cells incubated with GHRH antagonist JMR-132 (R.I: 2.973) as compared to control (R.I: 4.433). […]

Experiment [4] has as its system malondialdehyde (MDA). Nature of the experiment: Lipid peroxidation: malondialdehyde immunoblot in LNCaP cells. The conditions noted are these: 1 μM, 72 hour, control R.I: 4.433. The procedure:
as §2, §3

The test system of experiment [5] is reactive oxygen species. Nature of the experiment: Intracellular generation of reactive oxygen species (aminophenyl fluorescein) in LNCaP cells. The following applies: 10^−6 M, 30 minutes at 37° C. How it is done:
Percentage increase or decrease are expressed vs LNCaP cells cultured in the absence of JMR-132 or GHRH (1-29)NH2. *** (P<0.005).
The detection of the Reactive Oxygen Species was carried out using aminophenyl fluorescein, an indicator for the highly reactive oxygen species (Invitrogen, Carlsbad, Calif., USA). This fluorescein derivative is non fluorescent until it reacts with the hydroxyl radical, peroxynitrite anion or hypochlorite anion. […] LNCaP prostate cancer cells were seeded in 200 μl of RPMI 1640 containing 10 μM aminophenyl fluorescein at a density of 10^3 cells/well onto a 48-well plate and were incubated for 30 minutes at 37° C. with GHRH (1-29)NH2 or JMR-132 at a concentration of 10^−6 M. The fluorescence was measured using a fluorescence plate reader (VICTOR^3 Multilabel Plate Reader, Perkin Elmer, Shelton, Conn., USA) with an excitation wavelength of 490 nm and an emission wavelength of 515 nm.
LNCaP prostate cancer cell line cultured in vitro were exposed to 1 μM JMR-132 or 1 μM GHRH(1-29)NH2. The levels of the oxidation of the proteins were determined by the detection of the N-nitrotyrosine and the protein carbonyl groups. Both were elevated in the cells exposed to GHRH (1-29)NH2 (R.I: 3.282, 7.415) and decreased in the cells incubated with GHRH antagonist JMR-132 (R.I: 1.251, 4.275), as compared to control (R.I: 2.903, 5.846). […]

Regarding “GHRH(1-29)NH2 (YADAIFTNSYRKVLGQLSARKLLQDIMSR-NH2; UniProt P01286 32-60, looked up, fragment) [Growth Hormone-Releasing Hormone (1-29) amide, agonist peptide used for comparison with the antagonist]”, the “expression of the NFκB (R.I), not influenced” value in experiment [1] was found to be 0.766. For the same substance, in experiment [2], the “GPX1 protein expression (R.I)” value came to 0.126. The “N-nitrotyrosine level, protein oxidation (R.I)” value in experiment [3] came to 3.282. For the same substance, the “lipid peroxidation, malondialdehyde (MDA) (R.I)” value in experiment [4] was found to be 4.89. Besides, the “generation of the reactive oxygen species, higher than control” value in experiment [5] came out at 36%.
As to “[PhAc^0-Tyr^1, D-Arg^2, Cpa^6, Ala^8, Har^9, Tyr(Me)^10, His^11, Abu^15, His^20, Nle^27, D-Arg^28, Har^29]hGH-RH(1-29)NH2 [JMR-132]”, the “expression of the NFκB (R.I), not influenced” value in experiment [1] is on record as 0.786. Further, the “GPX1 protein expression (R.I)” value in experiment [2] was 0.035. Also, the “N-nitrotyrosine level, protein oxidation (R.I)” value in experiment [3] came out at 1.251. Besides, the “lipid peroxidation, malondialdehyde (MDA) (R.I)” value in experiment [4] came out at 2.973. Moreover, the “generation of the reactive oxygen species, lower than control” value in experiment [5] is recorded as 23%.
